# Laboratory results reported in US9452217B2, “Methods for potentiating immune response for the treatment of infectious diseases and cancer” (Nitor Therapeutics, priority 2013, dated 2016).
# How the values were obtained:
# HCV = settings: chronically HCV infected patients; cited from earlier work
# [1] = test system: endogenous interferon-a (IFN-a); settings: healthy volunteers, oral; cited from earlier work
# B16 tumors = assay: Syngeneic mouse melanoma model; format: in vivo, C57BL/6 mice; settings: cyclophosphamide 100 mg/kg IP single dose; FIG. 6
# Method: Method: Cancer cells were injected subcutaneously in right flank of each mouse, 1×10^4 cells in 0.1 ml PBS with 20% Matrigel. Treatment with the NTR001 was initiated on day 6 after injection of tumor cells. Tumor volume and survival were recorded every 3-4 days.
# human TLR2 = biological target: T1, human TLR2 (Homo sapiens, UniProt O60603); assay: TLR ligand screening: NF-κB activation (SEAP reporter) in HEK293 cells expressing TLR2; format: cell-based; settings: one concentration: Guanosine 100 uM, NTR001 10 uM, Inosine 100 uM; FIG. 2
# T1 construct: expressed in transfected cells; host or cells: HEK293
# Method: (§1) Method: TLR stimulation is tested by assessing NF-κB activation in HEK293 cells expressing a given TLR. The Secreted Embryonic Alkaline Phosphatase (SEAP) reporter is under the control of a promoter inducible by the transcription factor NF-κB. This reporter gene allows the monitoring of signaling through the TLR, based on the activation of NF-κB. The compounds are evaluated at one concentration and compared to control ligands. This step is performed in triplicate.
# human TLR4 = biological target: T2, human TLR4 (Homo sapiens, UniProt O00206+Q9Y6Y9); assay: TLR ligand screening: NF-κB activation (SEAP reporter) in HEK293 cells expressing TLR4; format: cell-based; settings: one concentration: Guanosine 100 uM, NTR001 10 uM, Inosine 100 uM; FIG. 2
# T2 construct: expressed in transfected cells; host or cells: HEK293
# Method: as §1
# [2] = test system: immune response to tetanus toxoid vaccine; assay: PNPi as adjuvant in tetanus toxoid vaccine efficacy study (mouse); format: in vivo; settings: mice, p.o., ELISA
# [3] = test system: L. monocytogenes (ATCC Strain35152, hemolytic substrain); assay: Mouse model of L. monocytogenes infection; settings: Balb/c mice infected i.v. with 1×10^6 CFU; 30 mg/kg PO or IP, 2 mg/kg drinking water; FIGS. 7 and 9
# T2 sequence (O00206 24-839): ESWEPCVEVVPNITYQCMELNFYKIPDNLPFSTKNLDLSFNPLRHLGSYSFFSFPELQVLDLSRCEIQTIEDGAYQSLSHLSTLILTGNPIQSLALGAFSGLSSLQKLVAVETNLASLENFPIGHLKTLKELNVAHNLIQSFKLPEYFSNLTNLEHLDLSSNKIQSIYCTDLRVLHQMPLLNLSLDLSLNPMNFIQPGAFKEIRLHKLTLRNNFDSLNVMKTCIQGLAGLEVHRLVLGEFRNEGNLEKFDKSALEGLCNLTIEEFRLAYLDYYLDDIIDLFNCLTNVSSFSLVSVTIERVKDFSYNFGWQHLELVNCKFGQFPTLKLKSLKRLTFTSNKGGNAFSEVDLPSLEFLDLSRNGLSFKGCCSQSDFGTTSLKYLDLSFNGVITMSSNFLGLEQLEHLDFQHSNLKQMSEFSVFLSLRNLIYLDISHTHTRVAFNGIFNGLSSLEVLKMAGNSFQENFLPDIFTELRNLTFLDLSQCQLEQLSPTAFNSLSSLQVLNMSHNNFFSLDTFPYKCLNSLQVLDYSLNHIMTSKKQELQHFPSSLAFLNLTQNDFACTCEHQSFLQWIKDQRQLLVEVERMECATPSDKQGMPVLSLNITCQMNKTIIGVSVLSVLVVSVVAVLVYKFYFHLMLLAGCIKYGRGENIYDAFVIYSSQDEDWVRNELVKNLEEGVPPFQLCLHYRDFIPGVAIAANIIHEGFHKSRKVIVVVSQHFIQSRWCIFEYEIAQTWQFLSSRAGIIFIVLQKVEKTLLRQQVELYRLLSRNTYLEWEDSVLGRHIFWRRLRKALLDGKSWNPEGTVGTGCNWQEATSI
# T2 sequence (Q9Y6Y9 17-160 limits assumed): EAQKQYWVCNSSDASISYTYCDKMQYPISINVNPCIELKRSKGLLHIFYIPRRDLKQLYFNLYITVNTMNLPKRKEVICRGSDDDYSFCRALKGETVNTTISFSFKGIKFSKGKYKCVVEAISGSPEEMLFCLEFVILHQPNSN
# T1 sequence (O60603 21-784): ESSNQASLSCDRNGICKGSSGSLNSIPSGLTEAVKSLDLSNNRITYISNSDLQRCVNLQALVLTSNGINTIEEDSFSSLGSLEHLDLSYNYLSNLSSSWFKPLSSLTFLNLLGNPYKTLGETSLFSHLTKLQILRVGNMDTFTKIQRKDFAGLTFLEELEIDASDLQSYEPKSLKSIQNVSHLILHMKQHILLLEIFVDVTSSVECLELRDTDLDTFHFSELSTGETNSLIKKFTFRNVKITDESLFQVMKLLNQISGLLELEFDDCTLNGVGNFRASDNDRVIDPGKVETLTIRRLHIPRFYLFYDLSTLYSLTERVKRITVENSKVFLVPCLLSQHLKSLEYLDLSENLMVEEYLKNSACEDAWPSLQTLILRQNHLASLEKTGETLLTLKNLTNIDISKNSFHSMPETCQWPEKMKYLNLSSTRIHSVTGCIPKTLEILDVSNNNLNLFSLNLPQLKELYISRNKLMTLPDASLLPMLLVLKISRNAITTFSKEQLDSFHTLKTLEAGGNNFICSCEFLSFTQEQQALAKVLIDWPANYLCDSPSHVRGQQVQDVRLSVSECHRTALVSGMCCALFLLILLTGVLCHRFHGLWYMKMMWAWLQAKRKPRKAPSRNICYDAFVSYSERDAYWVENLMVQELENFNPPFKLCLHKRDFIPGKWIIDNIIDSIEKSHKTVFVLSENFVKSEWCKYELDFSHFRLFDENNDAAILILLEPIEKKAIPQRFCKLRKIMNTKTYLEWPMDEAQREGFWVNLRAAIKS
smiles,measurement,setting,value
CC(=O)O[C@@H]1C[C@@H](CO)O[C@H]1n1c(=O)sc2cnc(N)nc21 [ANA773],HCV RNA,HCV,dose dependent reduction
same,induction of endogenous interferon-a,[1],induction of endogenous interferon-a (IFN-a) of multiple subtypes
"O=P1(N(CCCl)CCCl)NCCCO1 (centres unmarked) [Cyclcophosphamide, cyclophosphamide]",survival,B16 tumors,30%
Nc1nc2c(ncn2[C@@H]2O[C@H](CO)[C@@H](O)[C@H]2O)c(=O)[nH]1 [Guanosine],stimulatory effect on human TLR2,human TLR2,significant stimulatory effect
same,stimulatory effect on human TLR4,human TLR4,significant stimulatory effect
"O=c1[nH]cnc2c(CN3C[C@H](CO)[C@@H](O)C3)c[nH]c12 [NTR002, 1,5-dihydro-7-[[(3R,4R)-3-hydroxy-4-(hydroxymethyl)pyrrolidin-1-yl]methyl]-4H-pyrrolo [3,2-d]pyrimidin-4-one]",serum tetanus toxoid antibody titers compared to the vehicle treated group,"[2]; 30 mg/kg (6 days of treatment) and 60 mg/kg (3 days of treatment), day 38, FIG. 3",significantly elevated
same,serum interferon-g compared to the vehicle treated group,"[2]; high dose group 60 mg/kg, day 30, FIG. 4",elevated
same,weight loss,[3],significant decrease in weight loss
